Our source for the IC50 values is patent US6020366A, “Butyric acid matrix metalloproteinase inhibitors” (priority 1998, dated 2000).

Common to all, as to type: biochemical
One test concerns the target T1, MMP-2 (Gelatinase A) (Homo sapiens, UniProt P08253).
T1 sequence (P08253 110-660): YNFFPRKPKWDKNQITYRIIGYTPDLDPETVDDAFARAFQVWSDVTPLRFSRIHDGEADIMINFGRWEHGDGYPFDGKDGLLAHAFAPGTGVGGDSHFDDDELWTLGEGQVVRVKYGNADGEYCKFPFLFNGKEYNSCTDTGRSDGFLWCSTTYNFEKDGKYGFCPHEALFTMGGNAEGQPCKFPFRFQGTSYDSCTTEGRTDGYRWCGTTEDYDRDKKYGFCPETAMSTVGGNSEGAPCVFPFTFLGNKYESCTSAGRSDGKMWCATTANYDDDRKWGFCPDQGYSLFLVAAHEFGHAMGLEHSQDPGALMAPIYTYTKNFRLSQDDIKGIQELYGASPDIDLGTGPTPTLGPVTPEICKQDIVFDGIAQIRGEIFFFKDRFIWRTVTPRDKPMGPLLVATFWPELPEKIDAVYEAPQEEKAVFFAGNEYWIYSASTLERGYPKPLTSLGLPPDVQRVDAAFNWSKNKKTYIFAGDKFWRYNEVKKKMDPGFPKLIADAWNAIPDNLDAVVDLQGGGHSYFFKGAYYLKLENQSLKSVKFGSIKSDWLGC
In words: inhibition of MMP-2 hydrolysis of thiopeptolide substrate. Particulars: thiopeptolide substrate, pH 6.0, 22° C.; read-out: (IC50) MMP-2.

For a further test, the target named is MMP-3 (stromelysin) (Homo sapiens, UniProt P08254). In words: inhibition of MMP-3 hydrolysis of thiopeptolide substrate. Particulars: thiopeptolide substrate, pH 6.0, 22° C.; read-out: (IC50) MMP-3. An excerpt:
The assays measure the amount by which a test compound reduces the hydrolysis of a thiopeptolide substrate caused by a matrix metalloproteinase enzyme. Such assays are described in detail by Ye, et al., in Biochemistry, 1992;31(45):11231-11235).
Thiopeptolide substrates show virtually no decomposition or hydrolysis in the absence of a matrix metalloproteinase enzyme. A typical thiopeptolide substrate commonly utilized for assays is Ac-Pro-Leu-Gly-thioester-Len-Len-Gly-O Et. […] Assays are carried out with and without matrix metalloproteinase inhibitor compounds, and the amount of hydrolysis is compared for a determination of inhibitory activity of the test compounds.
In the table, MMP-1 refers to interstitial collagenase; MMP-2 refers to Gelatinase A; MMP-3 refers to stromelysin; MMP-7 refers to matrilysin; and MMP-13 refers to Collagenase 3.

A further test deals with MMP-13 (Collagenase 3) (Homo sapiens, UniProt P45452). The test can be described thus: inhibition of MMP-13 hydrolysis of thiopeptolide substrate. The settings on record: thiopeptolide substrate, pH 6.0, 22° C.; read-out: (IC50) MMP-13. An excerpt: The invention compounds have been evaluated in standard in vitro assays and shown to be potent inhibitors of several matrix metalloproteinase enzymes.

Structures are written as SMILES.

Sequence of MMP-3 (stromelysin) (P08254 100-477): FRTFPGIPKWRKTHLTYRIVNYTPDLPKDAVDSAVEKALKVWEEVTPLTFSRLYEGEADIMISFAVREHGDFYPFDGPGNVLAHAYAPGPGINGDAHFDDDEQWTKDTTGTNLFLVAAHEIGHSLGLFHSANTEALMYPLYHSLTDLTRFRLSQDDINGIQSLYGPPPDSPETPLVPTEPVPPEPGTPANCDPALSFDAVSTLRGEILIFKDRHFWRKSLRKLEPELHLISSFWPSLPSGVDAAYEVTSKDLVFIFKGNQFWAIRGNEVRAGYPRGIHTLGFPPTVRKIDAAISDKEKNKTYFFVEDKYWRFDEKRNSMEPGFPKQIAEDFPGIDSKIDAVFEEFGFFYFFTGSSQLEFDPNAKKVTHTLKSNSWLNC

As for `O=C(CC(NC(=O)C1CCCC1)C(=O)O)c1ccc2oc3ccccc3c2c1` (stereo not drawn) [Example 49, 2-(Cyclopentanecarbonyl-amino)-4-dibenzofuran-2-yl-4-oxo-butyric acid], the IC50 was 80 nM at MMP-2 (Gelatinase A), 350 nM on MMP-3 (stromelysin) and 4400 nM at MMP-13 (Collagenase 3).

Turning to `O=C(CC(NC(=O)c1ccc(F)cc1)C(=O)O)c1ccc2oc3ccccc3c2c1` (stereo not drawn) [Example 43, 4-Dibenzofuran-2-yl-2-(4-fluoro-benzoylamino)-4-oxo-butyric acid], the results for the IC50 at MMP-2 (Gelatinase A), on MMP-3 (stromelysin) and at MMP-13 (Collagenase 3) were 70 nM, 660 nM and 7100 nM, respectively.

`O=C(CC(NC(=O)c1ccc2c(c1)OCO2)C(=O)O)c1ccc2oc3ccccc3c2c1` (stereo not drawn) [Example 53, 2-[(Benzo[1,3)dioxole-5-carbonyl)-amino]-4-dibenzofuran-2-yl-4-oxo-butyric acid]: the values for the IC50 at MMP-2 (Gelatinase A), on MMP-3 (stromelysin) and at MMP-13 (Collagenase 3) were 130 nM, 1000 nM and 9200 nM, respectively.

For the compound `CS(=O)(=O)N[C@@H](CC(=O)c1ccc2oc3ccccc3c2c1)C(=O)O` [Example 13, (S)-4-Dibenzofuran-2-yl-4-oxo-2-methanesulfonylamino-butyric acid], the IC50 on MMP-2 (Gelatinase A) is 280 nM; at MMP-3 (stromelysin), 9200 nM.

For `O=C(CC(NC(=O)c1ccc2ccccc2c1)C(=O)O)c1ccc2oc3ccccc3c2c1` (stereo not drawn) [Example 22, 4-Dibenzofuran-2-yl-2-[(naphthalene-2-carbonyl)-amino] -4-oxo-butyric acid], the values for the IC50 at MMP-2 (Gelatinase A), at MMP-3 (stromelysin) and on MMP-13 (Collagenase 3) were 1700 nM, 6900 nM and 28000 nM, respectively.

In the case of `CC(C)c1cccc(C(C)C)c1NC(=O)N[C@@H](CC(=O)c1ccc2oc3ccccc3c2c1)C(=O)O` [Example 5, (S)-4-Dibenzofuran-2-yl-2-[3-(2,6-diisopropyl-phenyl)-ureido]-4-oxo-butyric acid], the 50% inhibitory concentration (IC50) at MMP-2 (Gelatinase A) was determined as 320 nM; at MMP-3 (stromelysin), 1700 nM.

For the compound `N#Cc1ccc(C(=O)NC(CC(=O)c2ccc3oc4ccccc4c3c2)C(=O)O)cc1` (stereo not drawn) [Example 35, 2-(4-Cyano-benzoylamino)-4-dibenzofuran-2-yl-4-oxo-butyric acid], the IC50 was determined as 110 nM at MMP-2 (Gelatinase A), 1100 nM at MMP-3 (stromelysin) and 11000 nM on MMP-13 (Collagenase 3).

Regarding `O=C(CC(NC(=O)c1sccc1Cl)C(=O)O)c1ccc2oc3ccccc3c2c1` (stereo not drawn) [Example 36, 2-[(3-Chloro-thiophene-2-carbonyl)-amino)-4-dibenzofuran-2-yl-4-oxo-butyric acid], the figures for the half-inhibitory concentration (IC50) at MMP-2 (Gelatinase A), at MMP-3 (stromelysin) and on MMP-13 (Collagenase 3) were 140 nM, 1000 nM and 13000 nM, respectively.

On to `O=C(C[C@H](NC(=O)c1ccc(-c2ccccc2)cc1)C(=O)O)c1ccc2oc3ccccc3c2c1` [Example 10, (S)-2-[(Biphenyl-4-carbonyl)-amino]-4-dibenzofuran-2-yl-4-oxo-butyric acid], for which the results for the IC50 on MMP-2 (Gelatinase A) and at MMP-3 (stromelysin) were 1640 nM and 9400 nM, respectively.

Regarding `O=C(COc1ccccc1)NC(CC(=O)c1ccc2oc3ccccc3c2c1)C(=O)O` (stereo not drawn) [Example 28, 4-Dibenzofuran-2-yl-4-oxo-2-(2-phenoxy-acetylamino)-butyric acid], the IC50 on MMP-2 (Gelatinase A) was determined as 180 nM; on MMP-3 (stromelysin) it was 510 nM; at MMP-13 (Collagenase 3) it was 12000 nM.

As for `O=C(CC(NC(=O)C1CC1)C(=O)O)c1ccc2oc3ccccc3c2c1` (stereo not drawn) [Example 38, 2-(Cyclopropanecarbonyl-amino)-4-dibenzofuran-2-yl-4-oxo-butyric acid], the IC50 at MMP-2 (Gelatinase A) worked out at 90 nM; at MMP-3 (stromelysin) it was 850 nM; on MMP-13 (Collagenase 3), 5600 nM.

Regarding `CC(=O)N[C@@H](CC(=O)c1ccc2oc3ccccc3c2c1)C(=O)O` [Example 4, (S)-2-Acetylamino-4-dibenzofuran-2-yl-4-oxo-butyric acid], the IC50 at MMP-3 (stromelysin) was 1600 nM.

Turning to `O=C(CC(NC(=O)c1ccc(C(F)(F)F)cc1)C(=O)O)c1ccc2oc3ccccc3c2c1` (stereo not drawn) [Example 48, 4-Dibenzofuran-2-yl-4-oxo-2-(4-trifluoromethyl-benzoylamino)-butyric acid], the half-maximal inhibitory concentration (IC50) came out at 320 nM on MMP-2 (Gelatinase A), 1500 nM on MMP-3 (stromelysin) and 20000 nM at MMP-13 (Collagenase 3).

For `COc1ccc(CC(=O)NC(CC(=O)c2ccc3oc4ccccc4c3c2)C(=O)O)cc1OC` (stereo not drawn) [Example 21, 4-Dibenzofuran-2-yl-2-[2-(3,4-dimethoxy-phenyl)-acetylamino] -4-oxo-butyric acid], the IC50 is 320 nM on MMP-2 (Gelatinase A), 2400 nM on MMP-3 (stromelysin) and 16000 nM on MMP-13 (Collagenase 3).

Turning to `O=C(CC(NC(=O)c1ccc(Cl)cc1)C(=O)O)c1ccc2oc3ccccc3c2c1` (stereo not drawn) [Example 39, 2-(4-Chloro-benzoylamino)-4-dibenzofuran-2-yl-4-oxo-butyric acid], the IC50 was determined as 150 nM on MMP-2 (Gelatinase A), 1200 nM on MMP-3 (stromelysin) and 12000 nM at MMP-13 (Collagenase 3).

For the compound `O=C(CC(NC(=O)c1ccc(Br)cc1)C(=O)O)c1ccc2oc3ccccc3c2c1` (stereo not drawn) [Example 42, 2-(4-Bromo-benzoylamino)-4-dibenzofuran-2-yl-4-oxo-butyric acid], the IC50 on MMP-2 (Gelatinase A) was determined as 180 nM; on MMP-3 (stromelysin), 1300 nM; at MMP-13 (Collagenase 3), 17000 nM.

As for `O=C(COc1ccc(Cl)cc1)NC(CC(=O)c1ccc2oc3ccccc3c2c1)C(=O)O` (stereo not drawn) [Example 19, 2-[2-(4-Chloro-phenoxy)-acetylamino]-4-dibenzofuran-2-yl-4-oxo-butyric acid], the results for the IC50 on MMP-2 (Gelatinase A), at MMP-3 (stromelysin) and on MMP-13 (Collagenase 3) were 640 nM, 3100 nM and 46000 nM, respectively.

Consider `O=C(CC(NC(=O)c1c(F)c(F)c(F)c(F)c1F)C(=O)O)c1ccc2oc3ccccc3c2c1` (stereo not drawn) [Example 40, 4-Dibenzofuran-2-yl-4-oxo-2-(2,3,4,5,6-pentafluoro-benzoylamino)-butyric acid], for which the concentration for half-maximal inhibition (IC50) on MMP-2 (Gelatinase A) was 5200 nM; on MMP-3 (stromelysin), 28000 nM.

Regarding `O=C(C[C@H](NC(=O)C(F)(F)F)C(=O)O)c1ccc2c(c1)Cc1ccccc1-2` [Example 15, (S)-4-(9H-fluoren-2-yl)-4-oxo-2-(2,2,2-trifluoroacetylamino)-butyric acid], the figures for the 50% inhibitory concentration (IC50) at MMP-2 (Gelatinase A) and at MMP-3 (stromelysin) were 12500 nM and 76500 nM, respectively.

As to `O=C(C[C@H](NC(=O)c1ccccc1)C(=O)O)c1ccc2oc3ccccc3c2c1` [Example 6, (S)-2-Benzoylamino-4-dibenzofuran-2-yl-4-oxo-butyric acid], the IC50 stood at 180 nM at MMP-2 (Gelatinase A) and 910 nM on MMP-3 (stromelysin).

For the compound `O=C(CCCCCCc1ccccc1)N[C@@H](CC(=O)c1ccc2oc3ccccc3c2c1)C(=O)O` [Example 9, (S)-4-Dibenzofuran-2-yl-4-oxo-2-(7-phenylheptanoylamino)-butyric acid], the IC50 at MMP-2 (Gelatinase A) came to 510 nM; at MMP-3 (stromelysin), 3900 nM.

Regarding `O=C(C[C@@H](NC(=O)C(F)(F)F)C(=O)O)c1ccc2oc3ccccc3c2c1` [Example 2, (R)-4-Dibenzofuran-2-yl-4-oxo-2-(2,2,2-trifluoroacetylamino)-butyric acid], the IC50 came to 44000 nM at MMP-2 (Gelatinase A) and 78000 nM on MMP-3 (stromelysin).

For the compound `Cc1ccc(C(=O)NC(CC(=O)c2ccc3oc4ccccc4c3c2)C(=O)O)cc1` (stereo not drawn) [Example 29, 4-Dibenzofuran-2-yl-2-(4-methyl-benzoylamino)-4-oxo-butyric acid], the IC50 at MMP-3 (stromelysin) was found to be 390 nM; at MMP-13 (Collagenase 3), 5200 nM.

Regarding `CCCCCCCCCCCC(=O)N[C@@H](CC(=O)c1ccc2oc3ccccc3c2c1)C(=O)O` [Example 12, (S)-4-Dibenzofuran-2-yl-4-oxo-2-(dodecanoylamino)-butyric acid], the IC50 on MMP-2 (Gelatinase A) was found to be 8800 nM; on MMP-3 (stromelysin) it was 4000 nM.
